Results taken from US20190382396A1, “SALTS OF BICYCLO[1.1.1]PENTANE INHIBITORS OF DUAL LEUCINE ZIPPER (DLK) KINASE FOR THE TREATMENT OF DISEASE” (Board of Regents, The University of Texas System, priority 2018, published 2019).

Columns and labels:
Assay type in all cases: physicochemical
[1] = Particle size distribution of hydrogen fumarate salt 11; conditions: for D-value: in µm (unit assumed)
Method: VMD=[…]; STD=[…]; Duration=0.04; Copt=2.90.

[2] = Polymorph formation of hydrogen fumarate salt 11 (slurry, anti-solvent, heat-cool); design: key to Observation 50° C. / observation rt / observation 60° C.: “s” = slurry; “c” = clear
Method: Formation of polymorphs of the hydrogen fumarate salt 11 was examined. About 15 mg of hydrogen fumarate salt 11 was combined with 0.5 mL of a selected organic solvent in a vial. The mixture was stirred at 700 RPM at 50° C. for 2 days. If a solid precipitate was present, the solid precipitate was then removed by centrifugation (14,000 RPM, 5 min) and dried under vacuum at 30° C. (Method I). If a solid precipitate was not present, the solvent was removed by evaporation under vacuum at 30° C. (Method II). In either case, the resulting material was evaluated by XRPD.
Polymorph formation was examined with a slurry method using various solvents. About 500 mg of hydrogen fumarate salt 11 was combined with 50 mL of DMSO and 1 mL DMF to afford a saturated solution. Anti-solvent (no more than 5x solution volume) chosen from EtOH, iPrOH, acetone, water, and EtOAc was added. In no case was a precipitate formed.
Polymorph formation was further examined with a heat-cool method using various solvents. About 100 mg of hydrogen fumarate salt 11 was combined with 1 mL of a selected solvent. The mixture was stirred at 700 RPM for 4 hrs at 60° C., then allowed to cool to room temperature. The cycle was repeated twice. If a solid precipitate was present, the solid precipitate was then removed by centrifugation and dried under vacuum at 30° C. (Method I). If a solid precipitate was not present, the solvent was removed by evaporation (Method II). In either case, the resulting material was evaluated by XRPD.

[3] = Thermogravimetric analysis / DSC weight loss; conditions: <120° C.
Method: Differential scanning calorimetry (“DSC”) was performed with a TA Q2000 instrument, using approx 1 mg of sample in a crimped Al pan, heating from room temperature to 300° C. at a rate of 10° C./min.
Thermogravimetric analysis (“TGA”) was performed with a TA Q5000 instrument, using approx 2-5 mg of sample in an open Pt pan, heating from room temperature to 300° C. at a rate of 10° C./min.

[4] = Dynamic vapor sorption (DVS), hygroscopicity
Method: Dynamic vapor sorption (“DVS”) was performed at 25° C., using approx 10-15 mg of sample and N2 gas at a flow rate of 200 mL/min, dm/dt=0.01% min, minimum dm/dt stability duration of 10 min, max equilibration time of 180 min, drying at 0% RH for 120 min, scanning from 0% RH to 90% RH to 0% RH with a step size of 10% RH.
Total cycling time varied, but in all cases was about 200-250 min.

[5] = Stability (50° C., 40° C./75% RH, light; 1 week); conditions: for XRPD change? / purity: bulk, 1 week
Method: The stability of the free base 1 and the selected salts 8, 9, 10, and 11 was evaluated. For each material, aliquots were set up at each of conditions (50° C., 40° C./75% RH, light) at given time points (initial and 1 week). PXRD diffractograms of the hydrogen fumarate salt 11 is shown in FIG. 17, with trace (a) showing the initial salt, trace (b) showing the salt after light treatment, trace (c) showing the salt after storage at 40° C. and 75% relative humidity for 1 week, and (d) showing the salt after storage at 50° C. for 1 week.

CC(C)c1nc(-c2cnc(N)c(OC(F)(F)F)c2)cn1C12CC(N3CCOCC3)(C1)C2.O=C(O)/C=C/C(=O)O [Example 11, 5-(2-isopropyl-1-(3-morpholinobicyclo[1.1.1]pentan-1-yl)-1H-imidazol-4-yl)-3-(trifluoromethoxy)pyridin-2-amine hydrogen fumarate]
PSD D90 ([1]; 8500 mg scale-up batch): D90 = 43 uM
D-value ([1]; % level 5): 1.20
D-value ([1]; % level 10): 2.21
D-value ([1]; % level 15): 3.64
D-value ([1]; % level 20): 5.39
D-value ([1]; % level 25): 7.16
D-value ([1]; % level 30): 8.89
D-value ([1]; % level 35): 10.58
D-value ([1]; % level 40): 12.28
D-value ([1]; % level 45): 14.04
D-value ([1]; % level 50): 15.88
D-value ([1]; % level 55): 17.79
D-value ([1]; % level 60): 19.93
D-value ([1]; % level 65): 22.30
D-value ([1]; % level 70): 24.85
D-value ([1]; % level 75): 28.06
D-value ([1]; % level 80): 31.79
D-value ([1]; % level 85): 36.34
D-value ([1]; % level 90): 42.91
D-value ([1]; % level 95): 54.73
observation 60° C. ([2]; heat-cool method, Acetone): s
observation rt ([2]; heat-cool method, Acetone): s
observation 60° C. ([2]; heat-cool method, EtOAc): s
observation rt ([2]; heat-cool method, EtOAc): s
observation 60° C. ([2]; heat-cool method, EtOH): s
observation rt ([2]; heat-cool method, EtOH): s
XRPD results ([2]; heat-cool method, THF): amorphous
observation 60° C. ([2]; heat-cool method, THF): c
observation rt ([2]; heat-cool method, THF): c
observation 60° C. ([2]; heat-cool method, iPrOH): s
observation rt ([2]; heat-cool method, iPrOH): s
Observation 50° C. ([2]; slurry 50° C., 2 days, 1/1 (v/v) EtOH/H2O): c
Observation 50° C. ([2]; slurry 50° C., 2 days, 1/1 (v/v) acetone/H2O): c
Observation 50° C. ([2]; slurry 50° C., 2 days, Acetone): c
Observation 50° C. ([2]; slurry 50° C., 2 days, CH2Cl2): s
Observation 50° C. ([2]; slurry 50° C., 2 days, CH3CN): s
Observation 50° C. ([2]; slurry 50° C., 2 days, Dioxane): c
Observation 50° C. ([2]; slurry 50° C., 2 days, EtOAc): s
Observation 50° C. ([2]; slurry 50° C., 2 days, EtOH): c
Observation 50° C. ([2]; slurry 50° C., 2 days, H2O): s
Observation 50° C. ([2]; slurry 50° C., 2 days, Heptane): s
Observation 50° C. ([2]; slurry 50° C., 2 days, MeOH): c
XRPD pattern ([2]; slurry 50° C., 2 days, MeOH): almost
Observation 50° C. ([2]; slurry 50° C., 2 days, Toluene): s
Observation 50° C. ([2]; slurry 50° C., 2 days, iPrOH): c
weight loss (TGA, %) [3]: 0.11% (<120° C.)
Maximum sorption ([4]; DVS, 25° C.): 0.47%
Hygroscopicity (0-40% RH) ([4]; DVS, 25° C., 0-40% RH): 0.1%
Hygroscopicity (0-90% RH) ([4]; DVS, 25° C., 0-90% RH): 0.47%
Change in mass (%) Desorption ([4]; DVS, Target % P/P0 0.0): −0.0114%
Change in mass (%) Sorption ([4]; DVS, Target % P/P0 0.0): 0.0000%
Change in mass (%) Desorption ([4]; DVS, Target % P/P0 10.0): 0.0209%
Change in mass (%) Hysteresis ([4]; DVS, Target % P/P0 10.0): 0.0010%
Change in mass (%) Sorption ([4]; DVS, Target % P/P0 10.0): 0.0200%
Change in mass (%) Desorption ([4]; DVS, Target % P/P0 20.0): 0.0448%
Change in mass (%) Hysteresis ([4]; DVS, Target % P/P0 20.0): 0.0067%
Change in mass (%) Sorption ([4]; DVS, Target % P/P0 20.0): 0.0381%
Change in mass (%) Desorption ([4]; DVS, Target % P/P0 30.0): 0.0866%
Change in mass (%) Hysteresis ([4]; DVS, Target % P/P0 30.0): 0.0286%
Change in mass (%) Sorption ([4]; DVS, Target % P/P0 30.0): 0.0581%
Change in mass (%) Desorption ([4]; DVS, Target % P/P0 40.0): 0.1238%
Change in mass (%) Hysteresis ([4]; DVS, Target % P/P0 40.0): 0.0267%
Change in mass (%) Sorption ([4]; DVS, Target % P/P0 40.0): 0.0971%
Change in mass (%) Desorption ([4]; DVS, Target % P/P0 50.0): 0.1695%
Change in mass (%) Hysteresis ([4]; DVS, Target % P/P0 50.0): 0.0352%
Change in mass (%) Sorption ([4]; DVS, Target % P/P0 50.0): 0.1343%
Change in mass (%) Desorption ([4]; DVS, Target % P/P0 60.0): 0.2285%
Change in mass (%) Hysteresis ([4]; DVS, Target % P/P0 60.0): 0.0457%
Change in mass (%) Sorption ([4]; DVS, Target % P/P0 60.0): 0.1828%
Change in mass (%) Desorption ([4]; DVS, Target % P/P0 70.0): 0.2885%
Change in mass (%) Hysteresis ([4]; DVS, Target % P/P0 70.0): 0.0438%
Change in mass (%) Sorption ([4]; DVS, Target % P/P0 70.0): 0.2447%
Change in mass (%) Hysteresis ([4]; DVS, Target % P/P0 80.0): 0.0390%
Change in mass (%) Sorption ([4]; DVS, Target % P/P0 80.0): 0.3295%
Change in mass (%) Desorption ([4]; DVS, Target % P/P0 90.0): 0.4742%
Change in mass (%) Sorption ([4]; DVS, Target % P/P0 90.0): 0.4742%
Hygroscopicity; form change ([4]; form change after DVS): no change
XRPD change? ([5]; 40° C., 75% RH): no
purity ([5]; 40° C., 75% RH): 99.88%
XRPD change? ([5]; 50° C.): no
purity ([5]; 50° C.): 99.89%
initial purity ([5]; initial (before storage)): 99.85%
XRPD change? ([5]; light): no
purity ([5]; light): 99.89%
